pEC50, pIC50: −log10 of the molar value. Structures can show the parent of a compound that is named as a salt.
Assays:
sRAGE binding to S100b = biological target: T1, sRAGE binding to S100b (Homo sapiens, UniProt Q15109); experiment: RAGE binding assay (ELISA), S100b as the RAGE ligand; conditions: compounds tested in hydrochloride salt form, concentration at which 50% signal has been inhibited
T1 construct: extracellular domain can be isolated by proteolysis of RAGE to generate soluble RAGE (sRAGE) comprised of the V and C domains
T1 sequence (Q15109 23-342 limits assumed): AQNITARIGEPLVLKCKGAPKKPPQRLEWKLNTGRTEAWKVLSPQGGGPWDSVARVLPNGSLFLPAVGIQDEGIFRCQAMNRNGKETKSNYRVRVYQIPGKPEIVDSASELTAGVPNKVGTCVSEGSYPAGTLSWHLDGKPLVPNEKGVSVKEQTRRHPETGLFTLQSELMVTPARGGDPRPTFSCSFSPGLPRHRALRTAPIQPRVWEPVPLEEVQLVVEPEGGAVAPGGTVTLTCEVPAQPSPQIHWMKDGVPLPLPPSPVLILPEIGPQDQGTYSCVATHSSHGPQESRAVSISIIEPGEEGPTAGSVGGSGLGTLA
Procedure, shortened: (§1)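 Ligand (500 ng/well) coated in carbonate buffer pH 9.8 overnight at 4° C and blocked with 1% BSA; test compound (10-100 μM in water, 4% DMSO co-solvent) incubated with sRAGE (6 nM FAC) 1 h at 37° C. Bound sRAGE detected by anti-sRAGE/biotin-anti-mouse/AP-streptavidin with pNPP, A405. IC50 = 50% signal inhibition.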

[1] = biological target: T2, sRAGE binding to β-amyloid (Homo sapiens, UniProt Q15109); experiment: RAGE binding assay (ELISA), β-amyloid as the RAGE ligand; conditions: compounds tested in hydrochloride salt form, concentration at which 50% signal has been inhibited
T2 construct: extracellular domain can be isolated by proteolysis of RAGE to generate soluble RAGE (sRAGE) comprised of the V and C domains
T2 sequence (Q15109 23-342 limits assumed): as above
Procedure, shortened: as §1

[2] = system: RAGE signaling in THP-1 cells; experiment: Functional assay: TNF-alpha secretion by S100b-stimulated THP-1 cells; assay type: cell-based; conditions: Homo sapiens; THP-1 cells stimulated with bovine S100b 100 μg/mL; TNF-alpha measured by ELISA 24 hours after stimulation; read-out: EC50 for TNF expression
Description: Previously the literature has cited that THP-1 cells in response to RAGE ligands secrete TNF alpha (Yeh C-H, et al. Diabetes. Vol. 50, June 2001, pp. 1495-1504). The following assay method may be used to identify compounds of Formula (I) or pharmaceutically acceptable salts thereof which are useful as antagonists of RAGE signaling.
The myeloid cell line, THP-1 (ATTC # TIB-202), may be cultured in RPMI-1640 media (ATCC, Cat #30-2001) supplemented with fetal bovine serum to a final concentration of 10% by volume and Penicillin-Streptomycin (Gibco, Cat #0.15140-122). Alternatively, media may be formulated using RPMI 1640 (Bio-Whitaker #12-702F) supplemented with 2 mM L-glutamine (Gibco #12381-018) adjusted to contain 1.5 g/L sodium bicarbonate (Gibco #25080-094), 4.5 g/L glucose, 10 mM HEPES (Cellgro #25-060-L1) and 1.0 mM sodium pyruvate (Gibco #11360-070) and supplemented with 0.05 mM 2-mercaptoethanol, […] fetal bovine serum, 10% per ATCC instructions. During culture, the culture cells are maintained at a density between 5×10^4 and 1×10^6 viable cells/mL. […]
The amount of TNF-alpha secreted by the THP-1 cells was measured 24 hours after the addition of the stimulant proteins to the cell culture using a commercially available ELISA kit (R&D Systems, Minneapolis, Minn. # DY210). […] The plate is read at 450 nm within 30 minutes. […]

| pIC50 (sRAGE binding to S100b) | pIC50 [1] | pEC50 [2] | SMILES |
| --- | --- | --- | --- |
| 6.09 | 6.09 | 5.90 | CCCCc1nnc(OC2CCN(C)CC2)cc1-c1ccc(OC2CCCCC2)cc1 [Example 14, 3-Butyl-4-(4-cyclohexyloxy-phenyl)-6-(1-methyl-piperidin-4-yloxy)-pyridazine dihydrochloride] |
| 5.83 | 5.74 |  | CCCCc1nnc(OC2CCN(C)CC2)cc1-c1ccc(OC2CCCCC2)c(C(C)=O)c1 [Example 66, 1-{5-[3-Butyl-6-(1-methyl-piperidin-4-yloxy)-pyridazin-4-yl]-2-cyclohexyloxy-phenyl}-ethanone] |
| 5.87 | 5.82 |  | CCCCc1nnc(OC2CCN(CCc3nnn(C)n3)CC2)cc1-c1ccc(OC2CCCCC2)cc1 [Example 21, 3-Butyl-4-(4-cyclohexyloxy-phenyl)-6-{1-[2-(2-methyl-2H-tetrazol-5-yl)-ethyl]-piperidin-4-yloxy}-pyridazine dihydrochloride] |
| 5.94 | 6.03 |  | CCCCc1nnc(C(=O)NC2CC3CCC(C2)N3C)cc1-c1ccc(OC2CCCCC2)cc1 (stereo not drawn) [Example 96, 6-Butyl-5-(4-cyclohexyloxy-phenyl)-pyridazine-3-carboxylic acid (8-methyl-8-aza-bicyclo[3.2.1]oct-3-yl)-amide dihydrochloride] |
| 5.47 | 5.43 |  | CN1CCC(Oc2cc(-c3ccc(OC4CCCCC4)cc3)c(C3CCC3)nn2)CC1 [Example 61, 3-cyclobutyl-4-(4-cyclohexyloxy-phenyl)-6-(1-methyl-piperidin-4-yloxy)-pyridazine dihydrochloride] |
| 5.71 | 5.61 |  | CCCCc1nnc(C(=O)NC[C@H](O)CN(C)C)cc1-c1ccc(OC2CCCCC2)cc1 [Example 87, 6-Butyl-5-(4-cyclohexyloxy-phenyl)-pyridazine-3-carboxylic acid ((S)-3-dimethylamino-2-hydroxy-propyl)-amide dihydrochloride] |
| 6.02 | 5.96 |  | CCCCc1nnc(OC2CCN(C)CC2)cc1-c1ccc(OCc2ccccc2)cc1 [Example 1, 4-(4-enzyloxy-phenyl)-3-butyl-6-(1-methyl-piperidin-4-yloxy)-pyridazine dihydrochloride] |
| 5.84 | 5.65 |  | CCCCc1nnc(OC2CCN(CCc3nnc(C)o3)CC2)cc1-c1ccc(OC2CCCCC2)cc1 [Example 20, 3-Butyl-4-(4-cyclohexyloxy-phenyl)-6-{1-[2-(5-methyl-[1,3,4]oxadiazol-2-yl)-ethyl]-piperidin-4-yloxy}-pyridazine dihydrochloride] |
| 5.86 | 5.67 |  | CCCCc1nnc(C(=O)N2CCC(CN(C)C)C(F)(F)C2)cc1-c1ccc(OC2CCCCC2)cc1 (stereo not drawn) [Example 105, [6-Butyl-5-(4-cyclohexyloxy-phenyl)-pyridazin-3-yl]-(4-dimethylaminomethyl-3,3-difluoro-piperidin-1-yl)-methanone dihydrochloride] |
| 5.66 | 5.68 |  | CCCCc1nnc(OC2CCN(CCC(=O)N(C)C)CC2)cc1-c1ccc(OC2CCCCC2)cc1 [Example 16, 3-{4-[6-Butyl-5-(4-cyclohexyloxy-phenyl)-pyridazin-3-yloxy]-piperidin-1-yl}-N,N-dimethyl-propionamide dihydrochloride] |

— patent publication US9045461B2, “Phenyl-heteroaryl derivatives and methods of use thereof” (TransTech Pharma, LLC, priority 2010, dated 2015)
